How the values were obtained:
all NMDAR-subtypes = test system: all NMDAR-subtypes; design: method as in PMID 24174662; details: cited from earlier work
GABAA receptors = test system: GABAA receptors; design: method as in PMID 24174662; details: cited from earlier work
[1] = test system: synaptic NMDARs in cultured hippocampal neurons; experiment: Fraction of extrasynaptic NMDARs with MK-801, hippocampal neurons; type: cell-based, rat; details: 1 μM MK-801 10 min, 100 μM NMDA
Protocol: Evaluation of the fraction of extrasynaptic NMDARs was done as previously described. Briefly, neurons were initially perfused with extracellular solution (see above) supplemented with 100 μM of NMDA to assess the total (synaptic and extrasynaptic) NMDAR-dependent current. Subsequently, the 100 μM of NMDA was thoroughly washed for 2 min (to refrain from activation of NMDAR by remaining NMDA), then neurons were perfused with the extracellular solution supplemented with 1 μM MK-801 for 10 min to exclusively block synaptic receptors (which are activated by action-potential independent miniature neurotransmission). Extrasynaptic NMDAR-dependent currents were then measured by washing the cells from excess MK-801 for 2 min followed by a second application of 100 μM NMDA. Evaluation of the fraction of the extrasynaptic NMDARs was done by dividing the maximal current remaining after MK-801 application by the current obtained before the MK-801 treatment.

[2] = test system: GluN2B-G689C and GluN2B-G689S variant receptors; design: method as in PMID 34212862, PMID 37369021; details: cited from earlier work
[3] = molecular target: T1, Mixed di-heteromeric GluN2B-wt/GluN2B-G689S (Rattus norvegicus, UniProt P35439+Q00960, G689S); experiment: TEVC in Xenopus oocytes; type: cell-based; details: 5 mM glutamate
T1 construct: expressed in transfected cells; host or cells: Xenopus laevis oocytes, mRNA injection
Description: (§1) Aliquots were thawed before each experiment.

[4] = molecular target: T2, Purely di-heteromeric GluN2B-wt (GluN1-1a-wt + GluN2B-wt-C1/C2) (Rattus norvegicus, UniProt P35439+Q00959+Q00960, A876H/F846L/G856D/H848F/K857R/M851T/M860L/Q845K/V861L); experiment: TEVC in Xenopus oocytes; type: cell-based; details: 5 mM glutamate
T2 construct: expressed in transfected cells; host or cells: Xenopus laevis oocytes, mRNA injection
Description: as §1

[5] = molecular target: T3, Tri-heteromeric GluN2A-wt/GluN2B-G689C (Rattus norvegicus, UniProt P35439+Q00959+Q00960, A876H/F846L/G689C/G856D/H848F/K857R/M851T/M860L/Q845K/V861L); type: cell-based; details: 5 mM glutamate
T3 construct: expressed in transfected cells; host or cells: Xenopus laevis oocytes, mRNA injection
Description: as §1

[6] = molecular target: T4, Tri-heteromeric GluN2A-wt/GluN2B-G689S (Rattus norvegicus, UniProt P35439+Q00959+Q00960, A876H/F846L/G689S/G856D/H848F/K857R/M851T/M860L/Q845K/V861L); type: cell-based; details: 5 mM glutamate
T4 construct: expressed in transfected cells; host or cells: Xenopus laevis oocytes, mRNA injection
Description: as §1

[7] = molecular target: T5, GluN2A-wt-containing tri-heteromeric receptors (GluN2B wt or variants) (Rattus norvegicus, UniProt P35439+Q00959+Q00960, A876H/F846L/G856D/H848F/K857R/M851T/M860L/Q845K/V861L); experiment: TEVC in Xenopus oocytes, all tri-heteromers; type: cell-based
T5 construct: expressed in transfected cells; host or cells: Xenopus laevis oocytes, mRNA injection
Description: as §1

[8] = test system: non-tagged purely di-heteromeric GluN2B-G689C; details: purely variant di-heteromers, previous observations; cited from earlier work
[9] = test system: non-tagged purely di-heteromeric GluN2B-G689S; details: purely variant di-heteromers, previous observations; cited from earlier work
[10] = molecular target: Mixed di-heteromeric GluN2B-wt/GluN2B-G689C (Rattus norvegicus, UniProt P35439+Q00960, G689C); experiment: TEVC in Xenopus oocytes; details: 5 mM glutamate
Protocol: (§2) Two electrode voltage clamp (TEVC) recordings were carried out 24–72 h after mRNA injections, as previously described [17, 37]. We use a commercial amplifier (Warner Instruments, USA) and Digitizer (Digidata-1550B; Molecular Devices, USA), controlled by the pClamp10 software (Molecular Devices, USA). Electrode were made by pulling glass capillaries (Narishige, Japan) filled with 3 M KCl, into which we inserted chlorinated silver wires. […] For hERG channel recordings, oocytes were clamped at (− 60) mV for 1 s, followed by a voltage jump to 20 mV for 4 s, and an additional voltage jump to (− 50) mV for 6 s and return to baseline voltage (see Supplementary. 6f), as previously described [53].
(§3) When assessing potentiation by PS, all other solutions also included equal amounts of the DMSO carrier (0.2%).
Electrophysiology data were analyzed by Clampfit 11.2 (Molecular Devices, USA), plotted using GraphPad 8 or SigmaPlot 11(Systat software, Inc.). […] In all TEVC recordings in oocytes, the responses were normalized to current amplitude obtained from that individual cell. […] All data are shown as mean ± SEM. In all experiments N indicates the number of independent experiments, whereas n indicates the number of cells recorded. In each experiment, data underwent normality test prior to statistical assessment. Normally distributed data were assessed for significance by using paired t-test or one-way ANOVA for multiple group comparison and post hoc Tukey test or Dunnett's test. Similarly, in the case of non-normally distributed data significance was assessed by Mann Whitney test or Kruskal–Wallis ANOVA on ranks test followed by Dunn’s multiple comparison post hoc; n.s., non-significant; *p < 0.05; **p < 0.01; ***p < 0.001. […] Leak expression was evaluated by normalizing the maximal current (Imax) of each ER-retained NMDAR composition to Imax of control group (which was recorded in all experiments). Estimation of activation time constant (τ) for potentiated currents by PS, was performed by fitting PS- potentiated currents with a standard single-exponential function, from which we extracted the time constant (τ).

[11] = molecular target: Tri-heteromeric GluN2A-wt/GluN2B-wt (Rattus norvegicus, UniProt P35439+Q00959+Q00960, A876H/F846L/G856D/H848F/K857R/M851T/M860L/Q845K/V861L); experiment: TEVC in Xenopus oocytes; details: 5 mM glutamate
Protocol: as §2, §3
Electrophysiology data were analyzed by Clampfit 11.2 (Molecular Devices, USA), plotted using GraphPad 8 or SigmaPlot 11(Systat software, Inc.). […] In all TEVC recordings in oocytes, the responses were normalized to current amplitude obtained from that individual cell. […] All data are shown as mean ± SEM. In all experiments N indicates the number of independent experiments, whereas n indicates the number of cells recorded. In each experiment, data underwent normality test prior to statistical assessment. Normally distributed data were assessed for significance by using paired t-test or one-way ANOVA for multiple group comparison and post hoc Tukey test or Dunnett's test. Similarly, in the case of non-normally distributed data significance was assessed by Mann Whitney test or Kruskal–Wallis ANOVA on ranks test followed by Dunn’s multiple comparison post hoc; n.s., non-significant; *p < 0.05; **p < 0.01; ***p < 0.001. […] Leak expression was evaluated by normalizing the maximal current (Imax) of each ER-retained NMDAR composition to Imax of control group (which was recorded in all experiments). […]

GluN2B di-heteromers = test system: GluN2B di-heteromers; design: method as in PMID 29682629; details: 2.5 μM ifenprodil; cited from earlier work
[12] = test system: tri-heteromers (GluN2A/GluN2B); design: method as in PMID 29682629; details: 2.5 μM ifenprodil; cited from earlier work
[13] = test system: GluN2A-containing di-heteromers; design: method as in PMID 29682629; details: 2.5 μM ifenprodil; cited from earlier work
[14] = molecular target: di- or tri-heteromeric NMDA receptors (Rattus norvegicus, UniProt P35439+Q00959+Q00960, A876H/F846L/G856D/H848F/K857R/M851T/M860L/Q845K/V861L); details: 0.1-10 μM olanzapine, 5 mM glutamate, 100 μM glycine
Description: as §1

[15] = molecular target: T6, Purely di-heteromeric GluN2B-G689C (C1/C2) (Rattus norvegicus, UniProt P35439+Q00959+Q00960, A876H/F846L/G689C/G856D/H848F/K857R/M851T/M860L/Q845K/V861L); experiment: TEVC in Xenopus oocytes; type: cell-based
T6 construct: expressed in transfected cells; host or cells: Xenopus laevis oocytes, mRNA injection
Description: as §1

[16] = molecular target: T7, Purely di-heteromeric GluN2B-G689S (C1/C2) (Rattus norvegicus, UniProt P35439+Q00959+Q00960, A876H/F846L/G689S/G856D/H848F/K857R/M851T/M860L/Q845K/V861L); experiment: TEVC in Xenopus oocytes; type: cell-based
T7 construct: expressed in transfected cells; host or cells: Xenopus laevis oocytes, mRNA injection
Description: as §1

[17] = test system: NMDAR-dependent currents in cultured hippocampal neurons (naive or overexpressing GluN2B-wt, GluN2B-G689C, GluN2B-G689S); experiment: Whole cell patch clamp of primary cultured hippocampal neurons; type: cell-based, rat
Protocol: Cultures of hippocampal primary neurons were established as previously stated. Briefly, extracted rat neonates (P0) hippocampi were dissociated and plated onto 12 mm poly-D-lysine (Sigma-Aldrich, Cat. #P6407)- treated glass coverslips. Cultures were then maintained in an enriched growth media and grown at 37 °C and 5% CO2. Following five days in-vitro (DIV), growth medium was supplemented with 4 μM cytosine-arabinoside (ARA-C) to suppress glia proliferation. At nine DIV, neurons were co-transfected using the calcium-phosphate method with 2 different plasmids: 0.3 μg DNA of eYFP and 2 μg GluN2B-wt or GluN2B-G689C or GluN2B-G689S. To avoid recordings from cells transfected only with the fluorescent reporter, the ratio between the different plasmids during co-transfection favored the plasmids encoding GluN2B-wt/G689C/G689S. Recordings were performed four to seven days past transfection.
We patched YFP-positive neurons at 13–18 DIV. YFP was excited by X-Cite LED illuminator (Excelitas Technologies). Electrode were made by pulling glass capillaries to resistance of 5–10 MΩ. Electrodes were filled with an intracellular solution containing (in mM): 135 K-gluconate, 10 NaCl, 10 HEPES, 2 MgCl2, 2 Mg^2+-ATP, 1 EGTA, pH adjusted to 7.3 with KOH. Patch-clamp recordings were performed with Axon MultiClamp 700B amplifier and Axon Digidata 1440A acquisition system. In all experiments, recordings were performed using a 10 kHz sampling rate and low pass filter. Neurons were clamped at (-70) mV. […] Cells were recorded for ~ 3 min. For assessing the total NMDAR-dependent current (Imax), neurons were then perfused with extracellular solution (see above) supplemented with 100 μM of NMDA (Alomone labs, Cat #: N-170) for exclusive activation of NMDARs. Potentiation was assessed by perfusing cells with the extracellular solution along with 100 μM NMDA and 100 μM of PS (Cat. #P162) in 0.2% DMSO. […] Cells that didn’t reach steady-state after application of 100 μM NMDA were excluded from analysis. Extent of potentiation by PS was evaluated at steady-state.

[18] = molecular target: T8, Purely wt or mixed di-heteromeric receptors containing GluN2B-subunits (Rattus norvegicus, UniProt P35439+Q00959+Q00960, A876H/F846L/G856D/H848F/K857R/M851T/M860L/Q845K/V861L); experiment: TEVC in Xenopus oocytes, wt and mixed di-heteromers; type: cell-based; details: 100 µM PS
T8 construct: expressed in transfected cells; host or cells: Xenopus laevis oocytes, mRNA injection
Description: as §1

[19] = test system: GluN2C- and GluN2D-containing di-heteromers; details: cited from earlier work
GABAA receptor = test system: GABAA receptor; design: method as in PMID 34339523; details: cited from earlier work

T5 sequence (Q00959 23-1464, other chains not shown): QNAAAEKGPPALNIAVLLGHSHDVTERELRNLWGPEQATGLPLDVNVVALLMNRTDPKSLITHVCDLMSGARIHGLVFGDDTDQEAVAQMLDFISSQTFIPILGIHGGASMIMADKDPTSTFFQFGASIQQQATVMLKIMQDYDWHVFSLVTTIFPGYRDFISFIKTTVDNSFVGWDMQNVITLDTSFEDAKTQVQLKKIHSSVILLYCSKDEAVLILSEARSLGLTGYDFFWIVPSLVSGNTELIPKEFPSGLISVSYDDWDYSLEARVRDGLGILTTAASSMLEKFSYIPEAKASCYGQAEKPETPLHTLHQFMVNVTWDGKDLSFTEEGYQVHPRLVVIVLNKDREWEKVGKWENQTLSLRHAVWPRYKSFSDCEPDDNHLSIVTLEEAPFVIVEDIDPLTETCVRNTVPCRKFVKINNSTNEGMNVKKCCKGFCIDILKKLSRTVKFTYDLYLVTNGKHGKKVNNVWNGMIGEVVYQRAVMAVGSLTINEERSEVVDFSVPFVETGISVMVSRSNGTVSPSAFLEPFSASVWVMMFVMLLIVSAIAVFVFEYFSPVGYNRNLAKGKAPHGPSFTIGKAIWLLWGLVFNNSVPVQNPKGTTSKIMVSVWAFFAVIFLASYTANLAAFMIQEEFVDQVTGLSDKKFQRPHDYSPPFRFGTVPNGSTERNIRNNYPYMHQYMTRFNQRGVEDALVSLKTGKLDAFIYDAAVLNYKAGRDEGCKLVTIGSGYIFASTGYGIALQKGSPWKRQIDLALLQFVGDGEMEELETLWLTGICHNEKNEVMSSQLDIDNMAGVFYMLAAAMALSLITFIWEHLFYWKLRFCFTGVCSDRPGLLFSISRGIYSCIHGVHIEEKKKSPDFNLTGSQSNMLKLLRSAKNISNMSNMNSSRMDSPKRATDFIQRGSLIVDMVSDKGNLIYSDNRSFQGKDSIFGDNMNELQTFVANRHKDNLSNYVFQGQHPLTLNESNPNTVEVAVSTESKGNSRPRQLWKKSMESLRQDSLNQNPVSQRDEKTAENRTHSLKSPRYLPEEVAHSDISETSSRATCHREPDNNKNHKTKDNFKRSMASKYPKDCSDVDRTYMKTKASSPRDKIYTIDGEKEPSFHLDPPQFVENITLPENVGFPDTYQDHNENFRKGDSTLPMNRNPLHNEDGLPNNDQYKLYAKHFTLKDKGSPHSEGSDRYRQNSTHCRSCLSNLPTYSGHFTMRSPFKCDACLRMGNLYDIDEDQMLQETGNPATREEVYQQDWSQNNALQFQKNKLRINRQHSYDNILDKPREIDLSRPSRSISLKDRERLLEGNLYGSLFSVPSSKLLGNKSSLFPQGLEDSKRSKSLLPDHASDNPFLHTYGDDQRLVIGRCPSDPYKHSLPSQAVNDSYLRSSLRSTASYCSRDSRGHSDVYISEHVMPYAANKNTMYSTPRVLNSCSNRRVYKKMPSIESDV
T5 sequence (Q00960+Q00959 fused with the stated changes, other chains not shown): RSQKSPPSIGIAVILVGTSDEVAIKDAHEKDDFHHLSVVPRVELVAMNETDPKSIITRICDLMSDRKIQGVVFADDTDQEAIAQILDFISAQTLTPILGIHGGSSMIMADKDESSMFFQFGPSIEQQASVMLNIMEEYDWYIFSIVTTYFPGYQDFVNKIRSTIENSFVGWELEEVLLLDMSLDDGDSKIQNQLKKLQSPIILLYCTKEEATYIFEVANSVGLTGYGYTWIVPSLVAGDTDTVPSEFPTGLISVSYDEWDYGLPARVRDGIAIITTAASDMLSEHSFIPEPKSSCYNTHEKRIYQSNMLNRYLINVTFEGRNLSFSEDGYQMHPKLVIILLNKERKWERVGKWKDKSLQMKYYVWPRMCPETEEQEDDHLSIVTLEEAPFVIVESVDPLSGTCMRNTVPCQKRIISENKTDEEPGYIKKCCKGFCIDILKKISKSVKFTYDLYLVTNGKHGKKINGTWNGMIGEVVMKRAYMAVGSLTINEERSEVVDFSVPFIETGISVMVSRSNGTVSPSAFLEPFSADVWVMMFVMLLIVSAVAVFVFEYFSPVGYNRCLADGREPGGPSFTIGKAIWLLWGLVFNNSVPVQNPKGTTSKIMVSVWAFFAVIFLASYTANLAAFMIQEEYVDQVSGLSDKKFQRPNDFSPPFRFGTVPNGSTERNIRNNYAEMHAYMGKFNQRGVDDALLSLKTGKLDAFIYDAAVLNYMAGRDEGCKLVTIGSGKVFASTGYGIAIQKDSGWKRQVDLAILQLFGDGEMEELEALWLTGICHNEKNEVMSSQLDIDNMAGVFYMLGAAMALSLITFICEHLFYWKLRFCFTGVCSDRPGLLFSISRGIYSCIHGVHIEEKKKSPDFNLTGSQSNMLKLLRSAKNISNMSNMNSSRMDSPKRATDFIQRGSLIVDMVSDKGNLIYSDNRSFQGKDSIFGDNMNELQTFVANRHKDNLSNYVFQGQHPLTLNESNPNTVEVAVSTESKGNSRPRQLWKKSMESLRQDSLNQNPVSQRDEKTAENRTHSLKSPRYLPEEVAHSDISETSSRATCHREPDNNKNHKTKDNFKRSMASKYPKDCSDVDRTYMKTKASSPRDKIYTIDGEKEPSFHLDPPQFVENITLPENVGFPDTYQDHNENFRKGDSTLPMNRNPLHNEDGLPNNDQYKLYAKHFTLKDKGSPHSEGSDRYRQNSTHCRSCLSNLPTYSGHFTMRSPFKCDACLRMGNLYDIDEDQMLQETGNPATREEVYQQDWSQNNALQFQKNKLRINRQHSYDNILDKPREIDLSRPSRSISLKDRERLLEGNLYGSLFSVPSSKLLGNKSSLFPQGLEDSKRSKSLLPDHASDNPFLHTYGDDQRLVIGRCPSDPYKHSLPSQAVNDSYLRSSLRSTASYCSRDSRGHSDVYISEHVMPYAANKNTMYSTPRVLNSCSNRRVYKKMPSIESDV
T2 sequence (Q00960+Q00959 fused with the stated changes, other chains not shown): as above

Molecule: CC(C)[C@@H](O)CC[C@@H](C)[C@H]1CC[C@H]2[C@@H]3CC=C4C[C@@H](O)CC[C@]4(C)[C@H]3CC[C@]12C [24(S)-HC, 24(S)-hydroxycholesterol]
- potentiation by 24(S)-HC (all NMDAR-subtypes): can potentiate all NMDAR-subtypes alike
- effect of 24(S)-HC (GABAA receptors): no known effect

Molecule: C[C@]12N[C@H](Cc3ccccc31)c1ccccc12 [MK-801]
- extrasynaptic fraction (current remaining after MK-801) ([1]; neurons overexpressing GluN2B-wt): 38%
- fraction of remaining current after MK-801 ([1]; neurons overexpressing the variants): ~ 50%
- block by MK-801 [2]: efficiently and potently blocks both variant receptors

Molecule: NCCCNCCCCNCCCN [Spermine, spermine]
- Spermine Potentiation (Fold change) ([3]; 200 μM spermine, pH 7.3): 1.61 ± 0.03 (N = 2, n = 24) Fold change
- Spermine Potentiation (Fold change) ([4]; 200 μM spermine, pH 7.3): 1.97 ± 0.56 (N = 3, n = 25) Fold change
- Spermine Potentiation (Fold change) ([5]; 200 μM spermine, pH 7.3): 0.70 ± 0.03 n.s (N = 1, n = 10) Fold change
- Spermine Potentiation (Fold change) ([6]; 200 μM spermine, pH 7.3): 0.75 ± 0.02 n.s (N = 2, n = 19) Fold change
- response to spermine ([7]; 200 μM spermine, pH 7.3, 5 mM glutamate): non-responsive
- inhibition by spermine (fold) ([7]; all tri-heteromers examined, 200 μM spermine): 0.75 fold
- response to spermine [8]: poorly responsive
- response to spermine [9]: inhibited
- Spermine Potentiation (Fold change) ([10]; 200 μM spermine, pH 7.3): 1.78 ± 0.51 (N = 2, n = 20) Fold change
- Spermine Potentiation (Fold change) ([11]; 200 μM spermine, pH 7.3): 0.73 ± 0.02 (N = 2, n = 12) Fold change

Molecule: CC(C(O)c1ccc(O)cc1)N1CCC(Cc2ccccc2)CC1 (stereo not drawn) [ifenprodil]
- expected inhibition by ifenprodil (GluN2B di-heteromers): ~ 85%
- expected inhibition by ifenprodil [12]: < 40%
- expected inhibition by ifenprodil [13]: < 10%

Molecule: Cc1cc2c(s1)Nc1ccccc1N=C2N1CCN(C)CC1 [olanzapine]
- direct effect of olanzapine on NMDAR currents [14]: no evidence for any direct effect

Molecule: pregnenolone-sulfate [PS]
- PS Potentiation (Fold change) ([3]; 100 μM PS): 2.99 ± 0.10 n.s (N = 3, n = 20) Fold change
- potentiation by PS (fold increase) ([15]; 100 µM PS): ~ fourfold
- PS Potentiation (Fold change) ([15]; 100 μM PS, 5 mM glutamate): 3.96 ± 0.14 (N = 3, n = 18) Fold change
- potentiation by PS (fold increase) ([16]; 100 µM PS): ~ fivefold
- PS Potentiation (Fold change) ([16]; 100 μM PS, 5 mM glutamate): 4.68 ± 0.19 (N = 3, n = 23) Fold change
- PS Potentiation (Fold change) ([4]; 100 μM PS): 3.03 ± 0.13 (N = 3, n = 16) Fold change
- PS Potentiation (Fold change) ([5]; 100 μM PS): 2.12 ± 0.10 n.s (N = 3, n = 13) Fold change
- PS Potentiation (Fold change) ([6]; 100 μM PS): 2.02 ± 0.06 n.s (N = 2, n = 13) Fold change
- effect of PS on Imax ([17]; 100 μM PS with 100 μM NMDA, 50 μM glycine, all groups): increased Imax of neurons from all groups
- effect of PS on NMDAR-current without added NMDA ([17]; 100 μM PS, no NMDA added): enhanced the overall NMDAR-current
- extent of potentiation (fold) by PS ([17]; 100 μM PS, neurons overexpressing the variants vs naive or GluN2B-wt): significantly larger
- potentiation by PS (fold increase) ([7]; 100 µM PS, all tri-heteromeric types, wt or GluN2B variants): ~ twofold
- potentiation by PS (fold increase) [18]: ~ threefold
- mode of action of PS [19]: negative allosteric modulator (NAM)
- mode of action of PS (GABAA receptor): negative allosteric modulator (NAM)
- PS Potentiation (Fold change) ([10]; 100 μM PS): 2.78 ± 0.15 n.s. (N = 3, n = 13) Fold change
- PS Potentiation (Fold change) ([11]; 100 μM PS): 1.87 ± 0.04 (N = 4, n = 30) Fold change

From article PMC11127902, “Rescuing tri-heteromeric NMDA receptor function: the potential of pregnenolone-sulfate in loss-of-function GRIN2B variants” (Cellular and Molecular Life Sciences: CMLS, 2024)
